System: 521955-158-R2-J5-PDC complex spheroids, viability
Assay: Anticancer human tumor 521955-158-R2-J5-PDC patient-derived pancreatic carcinoma cell line growth inhibition [RAS]
Conditions: for IC50: curve of first compound; for viability, T/C: stronger effect = lower value
Procedure, shortened: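 Tumour cells grown as complex spheroids with HUVEC endothelial cells and mesenchymal stem cells, treated with RAS pathway inhibitor combinations. Each agent spans half-log steps from near clinical Cmax, or 10 microM where Cmax is unknown.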

[1] = second compound 0.000949 µM, first compound 0.00316 µM
[2] = second compound 0.000949 µM, first compound 0.01 µM
[3] = second compound 0.000949 µM, first compound 0.0316 µM
[4] = second compound 0.000949 µM, first compound 0.1 µM
[5] = second compound 0.003 µM, first compound 0.00316 µM
[6] = second compound 0.003 µM, first compound 0.01 µM
[7] = second compound 0.003 µM, first compound 0.0316 µM
[8] = second compound 0.003 µM, first compound 0.1 µM
[9] = second compound 0.00949 µM, first compound 0.00316 µM
[10] = second compound 0.00949 µM, first compound 0.01 µM
[11] = second compound 0.00949 µM, first compound 0.0316 µM
[12] = second compound 0.00949 µM, first compound 0.1 µM
[13] = second compound 0.03 µM, first compound 0.00316 µM
[14] = second compound 0.03 µM, first compound 0.01 µM
[15] = second compound 0.03 µM, first compound 0.0316 µM
[16] = second compound 0.03 µM, first compound 0.1 µM
[17] = second compound 0.0949 µM, first compound 0.00316 µM
[18] = second compound 0.0949 µM, first compound 0.01 µM
[19] = second compound 0.0949 µM, first compound 0.0316 µM
[20] = second compound 0.0949 µM, first compound 0.1 µM
[21] = second compound 0.3 µM, first compound 0.00316 µM
[22] = second compound 0.3 µM, first compound 0.01 µM
[23] = second compound 0.3 µM, first compound 0.0316 µM
[24] = second compound 0.3 µM, first compound 0.1 µM
[25] = second compound 0.000949 µM, first compound 0.316 µM
[26] = second compound 0.000949 µM, first compound 1 µM
[27] = second compound 0.003 µM, first compound 0.316 µM
[28] = second compound 0.003 µM, first compound 1 µM
[29] = second compound 0.00949 µM, first compound 0.316 µM
[30] = second compound 0.00949 µM, first compound 1 µM
[31] = second compound 0.03 µM, first compound 0.316 µM
[32] = second compound 0.03 µM, first compound 1 µM
[33] = second compound 0.0949 µM, first compound 0.316 µM
[34] = second compound 0.0949 µM, first compound 1 µM
[35] = second compound 0.3 µM, first compound 0.316 µM
[36] = second compound 0.3 µM, first compound 1 µM
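Note: compound exposure lasted seven days before the viability read.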
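Throughout, for viability, T/C: spheroids also contain HUVEC endothelial cells and mesenchymal stem cells as stroma.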

SMILES: CC(C)n1nc(-c2ccc3oc(N)nc3c2)c2c(N)ncnc21 + CCn1c(-c2cccnc2C(C)OC)c2c3cc(ccc31)N1CCOC(CC(NC(=O)C(C(C)C)N(C)C(=O)C3(F)CCN(C(=O)C#CC(C)(C)N(C)C)CC3)C(=O)N3CCCC(N3)C(=O)OCC(C)(C)C2)C1
- IC50 (second compound 0.000949 µM): 21 nM
- IC50 (second compound 0.003 µM): 20 nM
- IC50 (second compound 0.00949 µM): 23.6 nM
- IC50 (second compound 0.03 µM): 27.1 nM
- IC50 (second compound 0.0949 µM): 19.2 nM
- IC50 (second compound 0.3 µM): 13.5 nM
- viability, T/C (second compound 0.000949 µM, first compound 0.000316 µM): 96.7%
- viability, T/C (second compound 0.000949 µM, first compound 0.001 µM): 77.1%
- viability, T/C [1]: 83.1%
- viability, T/C [2]: 61.4%
- viability, T/C [3]: 41.8%
- viability, T/C [4]: 36.5%
- viability, T/C (second compound 0.003 µM, first compound 0.000316 µM): 82%
- viability, T/C (second compound 0.003 µM, first compound 0.001 µM): 91%
- viability, T/C [5]: 91.4%
- viability, T/C [6]: 64.8%
- viability, T/C [7]: 41.5%
- viability, T/C [8]: 30.1%
- viability, T/C (second compound 0.00949 µM, first compound 0.000316 µM): 93.3%
- viability, T/C (second compound 0.00949 µM, first compound 0.001 µM): 85.7%
- viability, T/C [9]: 83.6%
- viability, T/C [10]: 70.3%
- viability, T/C [11]: 42.5%
- viability, T/C [12]: 29.2%
- viability, T/C (second compound 0.03 µM, first compound 0.000316 µM): 89.2%
- viability, T/C (second compound 0.03 µM, first compound 0.001 µM): 101%
- viability, T/C [13]: 90.4%
- viability, T/C [14]: 69.8%
- viability, T/C [15]: 48.6%
- viability, T/C [16]: 34.2%
- viability, T/C (second compound 0.0949 µM, first compound 0.000316 µM): 73.5%
- viability, T/C (second compound 0.0949 µM, first compound 0.001 µM): 83.1%
- viability, T/C [17]: 86.2%
- viability, T/C [18]: 63.3%
- viability, T/C [19]: 39.9%
- viability, T/C [20]: 28.8%
- viability, T/C (second compound 0.3 µM, first compound 0.000316 µM): 73.9%
- viability, T/C (second compound 0.3 µM, first compound 0.001 µM): 70.3%
- viability, T/C [21]: 85.2%
- viability, T/C [22]: 55.2%
- viability, T/C [23]: 40.7%
- viability, T/C [24]: 30%

SMILES: CCN1CCN(Cc2ccc(Nc3ncc(F)c(-c4cc(F)c5nc(C)n(C(C)C)c5c4)n3)nc2)CC1 + CCn1c(-c2cccnc2C(C)OC)c2c3cc(ccc31)N1CCOC(CC(NC(=O)C(C(C)C)N(C)C(=O)C3(F)CCN(C(=O)C#CC(C)(C)N(C)C)CC3)C(=O)N3CCCC(N3)C(=O)OCC(C)(C)C2)C1
- IC50 (second compound 0.000949 µM): > 1000 nM
- IC50 (second compound 0.003 µM): > 1000 nM
- IC50 (second compound 0.00949 µM): > 1000 nM
- IC50 (second compound 0.03 µM): > 1000 nM
- IC50 (second compound 0.0949 µM): > 1000 nM
- IC50 (second compound 0.3 µM): > 1000 nM
- viability, T/C [1]: 96.8%
- viability, T/C [2]: 87.4%
- viability, T/C [3]: 61.9%
- viability, T/C [4]: 80.1%
- viability, T/C [25]: 87.8%
- viability, T/C [26]: 74.5%
- viability, T/C [5]: 88.6%
- viability, T/C [6]: 89.2%
- viability, T/C [7]: 81.9%
- viability, T/C [8]: 75.7%
- viability, T/C [27]: 79.1%
- viability, T/C [28]: 70.7%
- viability, T/C [9]: 85.5%
- viability, T/C [10]: 80.1%
- viability, T/C [11]: 74.2%
- viability, T/C [12]: 79.5%
- viability, T/C [29]: 69.1%
- viability, T/C [30]: 74%
- viability, T/C [13]: 73.8%
- viability, T/C [14]: 89.7%
- viability, T/C [15]: 76.9%
- viability, T/C [16]: 75.1%
- viability, T/C [31]: 73.1%
- viability, T/C [32]: 73.6%
- viability, T/C [17]: 66.8%
- viability, T/C [18]: 73.9%
- viability, T/C [19]: 73.7%
- viability, T/C [20]: 74.6%
- viability, T/C [33]: 71.6%
- viability, T/C [34]: 69.4%
- viability, T/C [21]: 71.5%
- viability, T/C [22]: 60.8%
- viability, T/C [23]: 59.9%
- viability, T/C [24]: 58.1%
- viability, T/C [35]: 61.6%
- viability, T/C [36]: 61.1%

SMILES: C[C@@H](NC(=O)c1ncnc(N)c1Cl)c1ncc(C(=O)Nc2cc(C(F)(F)F)c(Cl)cn2)s1 + CCn1c(-c2cccnc2C(C)OC)c2c3cc(ccc31)N1CCOC(CC(NC(=O)C(C(C)C)N(C)C(=O)C3(F)CCN(C(=O)C#CC(C)(C)N(C)C)CC3)C(=O)N3CCCC(N3)C(=O)OCC(C)(C)C2)C1
- IC50 (second compound 0.000949 µM): 5930 nM
- IC50 (second compound 0.003 µM): > 10000 nM
- IC50 (second compound 0.00949 µM): > 10000 nM
- IC50 (second compound 0.03 µM): 10000 nM
- IC50 (second compound 0.0949 µM): > 10000 nM
- IC50 (second compound 0.3 µM): 1510 nM
- viability, T/C [3]: 137%
- viability, T/C [4]: 100%
- viability, T/C [25]: 84.3%
- viability, T/C [26]: 70.1%
- viability, T/C (second compound 0.000949 µM, first compound 3.16 µM): 55.1%
- viability, T/C (second compound 0.000949 µM, first compound 10 µM): 53.1%
- viability, T/C [7]: 111%
- viability, T/C [8]: 121%
- viability, T/C [27]: 85.6%
- viability, T/C [28]: 73.2%
- viability, T/C (second compound 0.003 µM, first compound 3.16 µM): 64.2%
- viability, T/C (second compound 0.003 µM, first compound 10 µM): 56.1%
- viability, T/C [11]: 118%
- viability, T/C [12]: 94.8%
- viability, T/C [29]: 89%
- viability, T/C [30]: 60.1%
- viability, T/C (second compound 0.00949 µM, first compound 3.16 µM): 70.7%
- viability, T/C (second compound 0.00949 µM, first compound 10 µM): 63.6%
- viability, T/C [15]: 91.1%
- viability, T/C [16]: 126%
- viability, T/C [31]: 69.1%
- viability, T/C [32]: 59.6%
- viability, T/C (second compound 0.03 µM, first compound 3.16 µM): 68.6%
- viability, T/C (second compound 0.03 µM, first compound 10 µM): 48%
- viability, T/C [19]: 122%
- viability, T/C [20]: 99%
- viability, T/C [33]: 79.6%
- viability, T/C [34]: 56.7%
- viability, T/C (second compound 0.0949 µM, first compound 3.16 µM): 60.4%
- viability, T/C (second compound 0.0949 µM, first compound 10 µM): 58.8%
- viability, T/C [23]: 131%
- viability, T/C [24]: 98%
- viability, T/C [35]: 71.6%
- viability, T/C [36]: 46.8%
- viability, T/C (second compound 0.3 µM, first compound 3.16 µM): 48.1%
- viability, T/C (second compound 0.3 µM, first compound 10 µM): 46.1%

Reference: PubChem BioAssay AID2060900 (Molecular Pharmacology Branch, DTP, NCI, 2025)
